{"source": "patent US6887882B2", "about": "“Pharmaceutical compositions comprising chelidonine or derivatives thereof” (priority 2002, dated 2005)", "tested_on": "rabbit atrial tissue", "assay": "Frequency-dependent effects on action potentials of rabbit atrial tissue (APD90)", "format": "cell-based", "details": "1 μM, of control APD90, n=5", "method": "Action potentials in rabbit atrial tissue were recorded according to the method described in thesis by Kwak, et al. (A newly synthesized benzopyran derivatives, activates the cardiac ATP-sensitive K^+ channel. J Pharmacol Exp Ther 1995, 275: 807-812).\nMale New Zealand white rabbits weighing about 2 kg were stunned with a blow on the head and hearts were rapidly excised and transferred to a dissection bath filled with Tyrode's solution saturated with 97% O2 and 3% CO2 gas mixture and each dissected tissue was mounted horizontally in a narrow channel of a tissue chamber and continuously superfused with the Tyrode's solution at 37° C. The action potentials were elicited by stimulating the cardiac cells with square pulses (1˜5 Hz, 1-ms duration, 20-30% above threshold voltage) by a stimulator. […] Tracings on the oscilloscope screen were photographed on a 35-mm film and also recorded on a physiograph (RS 3400, Gould, Cleveland, Ohio). APD90 was used for the comparison of action potential durations. APD90 represents the action potential duration at 90% repolarization, relative to the action potential duration at maximum 100% depolarization. Images on the oscilloscope screen were captured on Polaroid camera.\nWe tested whether the effect of chelidonine on action potentials of rabbit atrial myocytes are frequency-dependent or not.\nThe relative action potential durations were normalized to the APD90 value in the absence of chelidonine at each frequency. At the stimulus frequency of 1, 2, 3, 4 and 5 Hz, 1 μM chelidonine increased APD90 by 13.0±8.1% (n=5), 14.5±7.9% (n=5), 16.5±2.2% (n=5) 28.2±0.4% (n=5) or 33.0±0.3 1% (n=5) of the control APD90 in the absence of chelidonine at each frequency, respectively."}
{"smiles": "CN1Cc2c(ccc3c2OCO3)[C@@H]2[C@H]1c1cc3c(cc1C[C@@H]2O)OCO3", "note": "[Compound 1, [5bR-(5bα,6β,12bα)]-5b,6,7,12b,13, 14-hexahydro-13-methyl[1,3]benzodioxolo[5,6c]-1,3-dioxolo[4,5-i]phenanthridin-6-ol]", "values": [{"measurement": "increase of APD90", "setting": "stimulus frequency 1 Hz", "value": "13.0±8.1", "unit": "%"}, {"measurement": "increase of APD90", "setting": "stimulus frequency 2 Hz", "value": "14.5±7.9", "unit": "%"}, {"measurement": "increase of APD90", "setting": "stimulus frequency 3 Hz", "value": "16.5±2.2", "unit": "%"}, {"measurement": "increase of APD90", "setting": "stimulus frequency 4 Hz", "value": "28.2±0.4", "unit": "%"}]}
